Tests used:
Cytochrome P450 2D6 = Cytochrome P450 2D6 (Homo sapiens, UniProt P10635); settings: bti-tn-5b1-4; also: in other assays of this panel Not Active means under 50% inhibition at 10 µM
D(3) dopamine receptor = D(3) dopamine receptor (Homo sapiens, UniProt P35462); test: DRUGMATRIX: Dopamine D3 radioligand binding (ligand: [3H] Spiperone); assay type: cell membranes, CHO, Membrane; settings: cho
[1] = target: Voltage-gated inwardly rectifying potassium channel KCNH2 (Homo sapiens, UniProt Q12809); settings: hek293; also: in other assays of this panel Not Active means under 50% inhibition at 10 µM
Voltage-gated inwardly rectifying potassium channel KCNH2, sequence (Q12809 whole entry): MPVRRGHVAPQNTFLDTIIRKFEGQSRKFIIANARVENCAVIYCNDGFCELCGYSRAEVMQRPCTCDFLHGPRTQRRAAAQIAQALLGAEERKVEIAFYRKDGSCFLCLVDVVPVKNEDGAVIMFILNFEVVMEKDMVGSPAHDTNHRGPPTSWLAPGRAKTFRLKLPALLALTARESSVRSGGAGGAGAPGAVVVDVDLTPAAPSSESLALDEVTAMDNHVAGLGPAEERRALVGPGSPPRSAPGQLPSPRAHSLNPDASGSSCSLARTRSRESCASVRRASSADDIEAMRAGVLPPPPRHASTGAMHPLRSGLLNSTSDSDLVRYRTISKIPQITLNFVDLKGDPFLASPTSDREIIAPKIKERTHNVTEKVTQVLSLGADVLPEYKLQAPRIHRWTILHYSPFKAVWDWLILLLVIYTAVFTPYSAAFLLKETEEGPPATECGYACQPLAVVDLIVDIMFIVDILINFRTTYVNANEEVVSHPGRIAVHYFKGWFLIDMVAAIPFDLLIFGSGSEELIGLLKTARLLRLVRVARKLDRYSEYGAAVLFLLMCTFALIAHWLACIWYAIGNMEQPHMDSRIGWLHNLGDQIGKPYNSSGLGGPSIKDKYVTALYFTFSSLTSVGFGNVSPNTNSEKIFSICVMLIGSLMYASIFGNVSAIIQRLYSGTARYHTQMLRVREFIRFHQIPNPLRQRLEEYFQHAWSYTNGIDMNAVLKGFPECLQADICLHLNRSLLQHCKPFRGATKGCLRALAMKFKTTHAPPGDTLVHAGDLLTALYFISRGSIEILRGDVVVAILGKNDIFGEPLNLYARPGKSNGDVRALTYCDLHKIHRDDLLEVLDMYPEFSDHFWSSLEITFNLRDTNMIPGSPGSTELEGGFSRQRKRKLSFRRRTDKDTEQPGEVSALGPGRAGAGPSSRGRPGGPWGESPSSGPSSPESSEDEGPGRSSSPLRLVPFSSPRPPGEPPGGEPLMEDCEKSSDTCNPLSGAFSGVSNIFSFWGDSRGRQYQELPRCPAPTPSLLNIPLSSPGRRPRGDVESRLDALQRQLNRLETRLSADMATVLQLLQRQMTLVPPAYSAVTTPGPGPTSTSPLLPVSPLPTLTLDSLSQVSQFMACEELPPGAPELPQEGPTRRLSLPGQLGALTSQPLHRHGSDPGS

Cytochrome P450 2C19 = Cytochrome P450 2C19 (Homo sapiens, UniProt P33261); settings: bti-tn-5b1-4; also: in other assays of this panel Not Active means under 50% inhibition at 10 µM
Cytochrome P450 2C19, sequence (P33261 whole entry): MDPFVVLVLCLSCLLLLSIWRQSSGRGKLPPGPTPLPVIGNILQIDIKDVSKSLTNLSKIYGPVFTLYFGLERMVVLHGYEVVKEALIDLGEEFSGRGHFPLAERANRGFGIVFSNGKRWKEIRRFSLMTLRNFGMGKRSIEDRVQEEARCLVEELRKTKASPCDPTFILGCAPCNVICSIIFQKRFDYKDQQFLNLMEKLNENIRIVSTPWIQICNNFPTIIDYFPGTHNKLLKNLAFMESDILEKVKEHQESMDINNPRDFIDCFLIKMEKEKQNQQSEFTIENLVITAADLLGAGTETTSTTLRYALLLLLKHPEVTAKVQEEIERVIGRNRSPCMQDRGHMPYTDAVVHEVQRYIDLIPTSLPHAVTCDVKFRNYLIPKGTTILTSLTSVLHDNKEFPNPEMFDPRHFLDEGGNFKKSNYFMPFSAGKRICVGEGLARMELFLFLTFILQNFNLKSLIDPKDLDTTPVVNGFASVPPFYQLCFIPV

Cytochrome P450 1A2 = target: T1, Cytochrome P450 1A2 (Homo sapiens, UniProt P05177); settings: bti-tn-5b1-4; also: in other assays of this panel Not Active means under 50% inhibition at 10 µM
T1 sequence (P05177 whole entry): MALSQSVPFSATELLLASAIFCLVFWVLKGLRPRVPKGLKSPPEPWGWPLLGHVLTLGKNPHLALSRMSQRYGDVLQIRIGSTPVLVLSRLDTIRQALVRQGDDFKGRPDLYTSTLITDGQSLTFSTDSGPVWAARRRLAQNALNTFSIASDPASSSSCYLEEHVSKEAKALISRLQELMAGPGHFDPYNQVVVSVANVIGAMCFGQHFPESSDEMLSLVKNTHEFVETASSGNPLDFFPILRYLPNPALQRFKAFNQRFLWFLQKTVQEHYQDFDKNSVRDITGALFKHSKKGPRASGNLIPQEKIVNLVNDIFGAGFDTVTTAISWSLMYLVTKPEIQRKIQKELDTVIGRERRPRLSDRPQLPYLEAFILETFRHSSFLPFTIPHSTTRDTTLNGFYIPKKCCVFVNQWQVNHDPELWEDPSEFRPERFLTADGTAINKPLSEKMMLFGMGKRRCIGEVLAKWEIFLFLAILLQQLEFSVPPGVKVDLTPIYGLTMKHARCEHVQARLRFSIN

D(1A) dopamine receptor = D(1A) dopamine receptor (Homo sapiens, UniProt P21728); test: DRUGMATRIX: Dopamine D1 radioligand binding (ligand: [3H] SCH-23390); assay type: cell membranes, CHO, Membrane; settings: cho; Not Active = under 50% inhibition at 10 µM
D(1A) dopamine receptor, sequence (P21728 whole entry): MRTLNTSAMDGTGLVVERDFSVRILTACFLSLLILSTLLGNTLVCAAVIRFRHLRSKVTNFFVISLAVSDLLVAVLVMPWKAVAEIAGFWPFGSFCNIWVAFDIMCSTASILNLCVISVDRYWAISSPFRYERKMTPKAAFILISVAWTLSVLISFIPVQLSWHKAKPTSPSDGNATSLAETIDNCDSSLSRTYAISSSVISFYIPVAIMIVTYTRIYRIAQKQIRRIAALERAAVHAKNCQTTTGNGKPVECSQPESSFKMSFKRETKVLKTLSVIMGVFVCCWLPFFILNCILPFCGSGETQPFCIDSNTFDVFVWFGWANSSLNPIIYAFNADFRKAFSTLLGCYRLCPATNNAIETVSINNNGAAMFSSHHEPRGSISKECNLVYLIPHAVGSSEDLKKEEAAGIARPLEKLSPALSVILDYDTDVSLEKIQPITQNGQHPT

Cytochrome P450 2A6 = target: T2, Cytochrome P450 2A6 (Homo sapiens, UniProt P11509); settings: bti-tn-5b1-4; also: in other assays of this panel Not Active means under 50% inhibition at 10 µM
T2 sequence (P11509 whole entry): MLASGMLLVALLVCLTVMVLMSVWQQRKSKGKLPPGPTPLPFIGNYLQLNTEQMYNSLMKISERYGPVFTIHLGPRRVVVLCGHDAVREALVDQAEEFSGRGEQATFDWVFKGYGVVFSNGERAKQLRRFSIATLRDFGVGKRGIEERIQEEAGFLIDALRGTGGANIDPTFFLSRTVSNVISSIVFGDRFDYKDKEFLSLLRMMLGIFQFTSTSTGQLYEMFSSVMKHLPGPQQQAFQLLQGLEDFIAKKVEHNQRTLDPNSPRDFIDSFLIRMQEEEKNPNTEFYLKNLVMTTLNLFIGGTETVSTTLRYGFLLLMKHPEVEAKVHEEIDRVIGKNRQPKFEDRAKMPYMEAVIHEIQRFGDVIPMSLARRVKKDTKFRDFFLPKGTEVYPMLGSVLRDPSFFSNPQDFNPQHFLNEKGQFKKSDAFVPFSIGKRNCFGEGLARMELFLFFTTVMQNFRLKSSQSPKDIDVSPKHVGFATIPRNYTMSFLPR

Estrogen receptor beta = Estrogen receptor beta (Homo sapiens, UniProt Q92731); settings: sf9; also: in other assays of this panel Not Active means under 50% inhibition at 10 µM
Estrogen receptor beta, sequence (Q92731 whole entry): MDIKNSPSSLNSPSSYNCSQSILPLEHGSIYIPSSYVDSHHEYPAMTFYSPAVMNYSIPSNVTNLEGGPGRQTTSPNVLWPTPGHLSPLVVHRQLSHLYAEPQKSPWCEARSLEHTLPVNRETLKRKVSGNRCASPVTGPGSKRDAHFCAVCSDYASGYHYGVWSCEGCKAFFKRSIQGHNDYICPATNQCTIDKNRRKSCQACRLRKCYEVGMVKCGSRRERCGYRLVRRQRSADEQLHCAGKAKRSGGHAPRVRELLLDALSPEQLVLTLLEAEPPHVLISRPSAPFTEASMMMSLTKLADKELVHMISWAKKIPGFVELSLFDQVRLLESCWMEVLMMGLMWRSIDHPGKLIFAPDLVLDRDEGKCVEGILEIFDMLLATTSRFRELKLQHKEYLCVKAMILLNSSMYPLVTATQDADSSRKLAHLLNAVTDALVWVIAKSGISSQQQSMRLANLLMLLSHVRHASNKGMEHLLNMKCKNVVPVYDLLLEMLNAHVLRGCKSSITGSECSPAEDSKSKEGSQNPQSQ

Estrogen receptor = target: T3, Estrogen receptor (Homo sapiens, UniProt P03372); settings: sf9; also: in other assays of this panel Not Active means under 50% inhibition at 10 µM
T3 sequence (P03372 whole entry): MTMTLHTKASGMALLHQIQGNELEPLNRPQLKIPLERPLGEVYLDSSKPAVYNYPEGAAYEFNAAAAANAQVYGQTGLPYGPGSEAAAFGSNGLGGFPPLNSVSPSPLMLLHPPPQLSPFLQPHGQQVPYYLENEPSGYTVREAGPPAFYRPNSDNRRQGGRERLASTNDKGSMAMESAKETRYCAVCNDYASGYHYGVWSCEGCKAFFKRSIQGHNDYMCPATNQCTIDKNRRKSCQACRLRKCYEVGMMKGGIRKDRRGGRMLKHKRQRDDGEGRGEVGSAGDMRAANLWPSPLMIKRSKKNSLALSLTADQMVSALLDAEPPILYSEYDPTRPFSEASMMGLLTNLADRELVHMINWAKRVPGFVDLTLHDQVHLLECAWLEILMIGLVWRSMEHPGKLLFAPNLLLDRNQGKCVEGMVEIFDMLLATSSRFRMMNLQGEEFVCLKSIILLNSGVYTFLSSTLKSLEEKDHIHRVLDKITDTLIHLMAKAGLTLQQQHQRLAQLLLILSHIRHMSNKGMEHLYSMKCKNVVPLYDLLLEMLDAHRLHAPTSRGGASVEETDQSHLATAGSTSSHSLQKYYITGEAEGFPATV

Cytochrome P450 2D6, sequence (P10635 whole entry): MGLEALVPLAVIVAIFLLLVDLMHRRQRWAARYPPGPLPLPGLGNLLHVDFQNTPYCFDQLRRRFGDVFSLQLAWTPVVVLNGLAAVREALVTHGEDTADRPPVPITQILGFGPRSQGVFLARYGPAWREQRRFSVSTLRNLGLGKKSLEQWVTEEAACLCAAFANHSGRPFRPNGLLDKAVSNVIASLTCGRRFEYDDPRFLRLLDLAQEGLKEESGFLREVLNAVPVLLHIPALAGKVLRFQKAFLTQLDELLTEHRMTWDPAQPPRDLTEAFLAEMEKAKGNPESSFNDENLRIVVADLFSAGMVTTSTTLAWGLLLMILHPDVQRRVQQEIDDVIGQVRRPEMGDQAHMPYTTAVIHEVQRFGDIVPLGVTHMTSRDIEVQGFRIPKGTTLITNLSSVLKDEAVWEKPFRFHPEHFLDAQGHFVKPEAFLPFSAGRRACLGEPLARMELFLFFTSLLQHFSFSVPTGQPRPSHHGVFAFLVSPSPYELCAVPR
D(3) dopamine receptor, sequence (P35462 whole entry): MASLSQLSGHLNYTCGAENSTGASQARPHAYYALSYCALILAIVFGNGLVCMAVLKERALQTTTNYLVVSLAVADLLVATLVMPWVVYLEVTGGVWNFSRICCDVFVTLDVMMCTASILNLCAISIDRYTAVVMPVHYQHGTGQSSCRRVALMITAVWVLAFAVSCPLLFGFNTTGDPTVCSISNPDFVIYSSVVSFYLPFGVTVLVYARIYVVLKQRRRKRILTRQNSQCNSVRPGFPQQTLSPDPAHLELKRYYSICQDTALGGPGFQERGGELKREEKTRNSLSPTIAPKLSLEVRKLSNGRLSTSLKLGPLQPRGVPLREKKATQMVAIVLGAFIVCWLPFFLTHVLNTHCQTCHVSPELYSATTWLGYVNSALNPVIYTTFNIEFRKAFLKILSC

O=C(c1ccccc1)c1ccc2n1CCC2C(=O)O (stereo unspecified) [KETOROLAC]
Not Active: IC50 (Cytochrome P450 2D6) | Ki (Cytochrome P450 2D6) | IC50 (D(3) dopamine receptor) | IC50 [1] | Ki [1] | IC50 (Cytochrome P450 2C19) | Ki (Cytochrome P450 2C19) | IC50 (Cytochrome P450 1A2) | Ki (Cytochrome P450 1A2) | IC50 (D(1A) dopamine receptor) | IC50 (Cytochrome P450 2A6) | Ki (Cytochrome P450 2A6)

CCN1CCCC1CNC(=O)c1cc(S(N)(=O)=O)ccc1OC (stereo unspecified) [SULPIRIDE]
Not Active: IC50 (Cytochrome P450 2D6) | Ki (Cytochrome P450 2D6) | IC50 [1] | Ki [1] | IC50 (Cytochrome P450 2C19) | Ki (Cytochrome P450 2C19) | IC50 (Estrogen receptor beta) | IC50 (Cytochrome P450 1A2) | Ki (Cytochrome P450 1A2) | IC50 (D(1A) dopamine receptor) | IC50 (Cytochrome P450 2A6) | Ki (Cytochrome P450 2A6)

O=C1CC[C@@]2(O)[C@H]3Cc4ccc(O)c5c4[C@@]2(CCN3CC2CC2)[C@H]1O5 [NALTREXONE]
Not Active: IC50 (D(3) dopamine receptor) | IC50 [1] | Ki [1] | IC50 (Cytochrome P450 2C19) | Ki (Cytochrome P450 2C19) | IC50 (Estrogen receptor beta) | IC50 (Cytochrome P450 1A2) | Ki (Cytochrome P450 1A2) | IC50 (D(1A) dopamine receptor) | IC50 (Cytochrome P450 2A6) | Ki (Cytochrome P450 2A6)

O=C(OC[C@H]1O[C@@H](OC(=O)c2cc(O)c(O)c(OC(=O)c3cc(O)c(O)c(O)c3)c2)[C@H](OC(=O)c2cc(O)c(O)c(OC(=O)c3cc(O)c(O)c(O)c3)c2)[C@@H](OC(=O)c2cc(O)c(O)c(OC(=O)c3cc(O)c(O)c(O)c3)c2)[C@@H]1OC(=O)c1cc(O)c(O)c(OC(=O)c2cc(O)c(O)c(O)c2)c1)c1cc(O)c(O)c(OC(=O)c2cc(O)c(O)c(O)c2)c1 [TANNIC ACID]
Not Active: IC50 (Cytochrome P450 2D6) | Ki (Cytochrome P450 2D6) | IC50 (D(3) dopamine receptor) | IC50 [1] | Ki [1] | IC50 (Cytochrome P450 2C19) | Ki (Cytochrome P450 2C19) | IC50 (D(1A) dopamine receptor) | IC50 (Cytochrome P450 2A6) | Ki (Cytochrome P450 2A6)

C=CCc1ccc2c(c1)OCO2 [SAFROLE]
Not Active: IC50 (Cytochrome P450 2D6) | Ki (Cytochrome P450 2D6) | IC50 (D(3) dopamine receptor) | IC50 [1] | Ki [1] | IC50 (Cytochrome P450 2C19) | Ki (Cytochrome P450 2C19) | IC50 (Estrogen receptor beta) | IC50 (D(1A) dopamine receptor) | IC50 (Cytochrome P450 2A6) | Ki (Cytochrome P450 2A6)

C#C[C@]1(O)CC[C@H]2[C@@H]3[C@H](C)CC4=C(CCC(=O)C4)[C@H]3CC[C@@]21C [TIBOLONE]
Not Active: IC50 (Cytochrome P450 2D6) | Ki (Cytochrome P450 2D6) | IC50 (D(3) dopamine receptor) | IC50 [1] | Ki [1] | IC50 (Estrogen receptor beta) | IC50 (Cytochrome P450 1A2) | Ki (Cytochrome P450 1A2) | IC50 (D(1A) dopamine receptor) | IC50 (Cytochrome P450 2A6) | Ki (Cytochrome P450 2A6)

CCN(CC)N=O [N-NITROSODIETHYLAMINE]
Not Active: IC50 (Cytochrome P450 2D6) | Ki (Cytochrome P450 2D6) | IC50 (D(3) dopamine receptor) | IC50 [1] | Ki [1] | IC50 (Cytochrome P450 2C19) | Ki (Cytochrome P450 2C19) | IC50 (Cytochrome P450 1A2) | Ki (Cytochrome P450 1A2) | IC50 (D(1A) dopamine receptor) | IC50 (Cytochrome P450 2A6) | Ki (Cytochrome P450 2A6)

C[C@]12CCC(=O)C[C@@H]1CC[C@@H]1[C@@H]2CC[C@]2(C)[C@@H](O)CC[C@@H]12 [STANOLONE]
Not Active: IC50 (Cytochrome P450 2D6) | Ki (Cytochrome P450 2D6) | IC50 (D(3) dopamine receptor) | IC50 [1] | Ki [1] | IC50 (Cytochrome P450 2C19) | Ki (Cytochrome P450 2C19) | IC50 (Estrogen receptor beta) | IC50 (Cytochrome P450 1A2) | Ki (Cytochrome P450 1A2) | IC50 (D(1A) dopamine receptor) | IC50 (Cytochrome P450 2A6) | Ki (Cytochrome P450 2A6)

CC#C[C@]1(O)CC[C@H]2[C@@H]3CCC4=CC(=O)CCC4=C3[C@@H](c3ccc(N(C)C)cc3)C[C@@]21C [MIFEPRISTONE]
Not Active: IC50 (Cytochrome P450 2D6) | Ki (Cytochrome P450 2D6) | IC50 (D(3) dopamine receptor) | IC50 (Cytochrome P450 2C19) | Ki (Cytochrome P450 2C19) | IC50 (Estrogen receptor beta) | IC50 (Cytochrome P450 1A2) | Ki (Cytochrome P450 1A2) | IC50 (D(1A) dopamine receptor) | IC50 (Cytochrome P450 2A6) | Ki (Cytochrome P450 2A6)

CS(=O)(=O)c1ccc(C2=C(c3ccccc3)C(=O)OC2)cc1 [ROFECOXIB]
Not Active: IC50 (Cytochrome P450 2D6) | Ki (Cytochrome P450 2D6) | IC50 (D(3) dopamine receptor) | IC50 [1] | Ki [1] | IC50 (Cytochrome P450 2C19) | Ki (Cytochrome P450 2C19) | IC50 (Estrogen receptor beta) | IC50 (Cytochrome P450 1A2) | Ki (Cytochrome P450 1A2) | IC50 (D(1A) dopamine receptor) | IC50 (Cytochrome P450 2A6) | Ki (Cytochrome P450 2A6)

C1CCN2C[C@@H]3C[C@@H](CN4CCCC[C@@H]34)[C@H]2C1 [SPARTEINE]
Not Active: IC50 (D(3) dopamine receptor) | IC50 [1] | Ki [1] | IC50 (Estrogen receptor beta) | IC50 (D(1A) dopamine receptor)

CO[C@@]12[C@H](COC(N)=O)C3=C(C(=O)C(C)=C(N)C3=O)N1C[C@@H]1N[C@@H]12 [MITOMYCIN]
Not Active: IC50 (Cytochrome P450 2D6) | Ki (Cytochrome P450 2D6) | IC50 (D(3) dopamine receptor) | IC50 [1] | Ki [1] | IC50 (Cytochrome P450 2C19) | Ki (Cytochrome P450 2C19) | IC50 (Estrogen receptor beta) | IC50 (Cytochrome P450 1A2) | Ki (Cytochrome P450 1A2) | IC50 (D(1A) dopamine receptor) | IC50 (Cytochrome P450 2A6) | Ki (Cytochrome P450 2A6)

CC(Cl)(Cl)Cl [TRICHLOROETHANE]
Not Active: IC50 (Cytochrome P450 2D6) | Ki (Cytochrome P450 2D6) | IC50 (D(3) dopamine receptor) | IC50 [1] | Ki [1] | IC50 (Cytochrome P450 2C19) | Ki (Cytochrome P450 2C19) | IC50 (Cytochrome P450 1A2) | Ki (Cytochrome P450 1A2) | IC50 (D(1A) dopamine receptor) | IC50 (Cytochrome P450 2A6) | Ki (Cytochrome P450 2A6)

O=C(O)c1cc(/N=N/c2ccc(S(=O)(=O)Nc3ccccn3)cc2)ccc1O [SULFASALAZINE]
Not Active: IC50 (Cytochrome P450 2D6) | Ki (Cytochrome P450 2D6) | IC50 (D(3) dopamine receptor) | IC50 [1] | Ki [1] | IC50 (Cytochrome P450 2C19) | Ki (Cytochrome P450 2C19) | IC50 (Estrogen receptor beta) | IC50 (Cytochrome P450 1A2) | Ki (Cytochrome P450 1A2) | IC50 (D(1A) dopamine receptor) | IC50 (Cytochrome P450 2A6) | Ki (Cytochrome P450 2A6)

Cc1cc2c(s1)Nc1ccccc1N=C2N1CCN(C)CC1 [OLANZAPINE]
Not Active: IC50 (Cytochrome P450 2D6) | Ki (Cytochrome P450 2D6) | IC50 (Cytochrome P450 2C19) | Ki (Cytochrome P450 2C19) | IC50 (Estrogen receptor) | IC50 (Cytochrome P450 1A2) | Ki (Cytochrome P450 1A2) | IC50 (Cytochrome P450 2A6) | Ki (Cytochrome P450 2A6)

Cc1cn([C@H]2C=C[C@@H](CO)O2)c(=O)[nH]c1=O [STAVUDINE]
Not Active: IC50 (Cytochrome P450 2D6) | Ki (Cytochrome P450 2D6) | IC50 (D(3) dopamine receptor) | IC50 [1] | Ki [1] | IC50 (Cytochrome P450 2C19) | Ki (Cytochrome P450 2C19) | IC50 (Estrogen receptor beta) | IC50 (Cytochrome P450 1A2) | Ki (Cytochrome P450 1A2) | IC50 (D(1A) dopamine receptor) | IC50 (Cytochrome P450 2A6) | Ki (Cytochrome P450 2A6)

CN(C)CCC=C1c2ccccc2COc2ccccc21 [DOXEPIN]
Not Active: IC50 (Cytochrome P450 2D6) | Ki (Cytochrome P450 2D6) | IC50 [1] | Ki [1] | IC50 (Cytochrome P450 2C19) | Ki (Cytochrome P450 2C19) | IC50 (Cytochrome P450 1A2) | Ki (Cytochrome P450 1A2) | IC50 (Cytochrome P450 2A6) | Ki (Cytochrome P450 2A6)
